For six molecules, log reduction results are on record in patent EP2070527A1, “Inhibitors of fungal biofilm-formation” (QuoNova Europe GmbH, priority 2007, dated 2009).

The subject of the assay is Candida paratropicalis. Description: MBEC assay (biofilm inhibition). The class given is cell-based. The note with it: biofilm grown 24 hours at 37±2°C on pegs, logR = log reduction; for log reduction at 100 µM: test compound 100 µm (so in the source); for log reduction at 10 µM: test compound 10 µM. As to the method:
TEST METHOD: MBEC™ Assay The compound to be tested was dissolved in DMSO to obtain a concentration that was 100 times that of the final concentration required (1mM for the 10µM assay and 10mM for the 100µM assay). 1.5 µL of the above solution was placed into each well of a 96 well plate (final volume in each well = 150 µL, final DMSO concentration of 1% (v/v)). To grow the organism and form a biofilm, a cryogenic stock of Candida paratropicalis (at - 70°C) was used. A first sub-culture was streaked out onto TSA (tryptic soy agar), upon which the plate was incubated at 37±2°C for 24 hours and stored wrapped in parafilm at 4 °C afterwards. From this first sub-culture, a second sub-culture was streaked out onto TSA. The plate was incubated at 37±2°C for 24 hours. The second sub-culture was used within 24 hours starting from the time it was first removed from incubation. Using the second sub-culture an inoculum in 3 mL sterile water that matches a 0.5 McFarland Standard (1.5 x 10^8 cells per mL) was created in a glass test tube using a sterile cotton swab. […] of this solution was diluted in 22mL TSB (tryptic soy broth) medium to a cell density of approximately 6.0 x 10^5 cells per mL. The diluted organism was inverted 3-5 times to achieve uniform mixing of the organism. One sample (100µl) of the diluted organism was used for an inoculum check by serially diluting and spot plating on TSA. To prepare a challenge plate, 20 µl of the diluted organism was added to each well of a 96 well plate except the sterility control wells. The test compounds were added to the wells to make up final concentrations of 10 µM and 100 µM (1.5 µL /well) in the designated location in the test plate. 128.5 µL of TSB was placed in each of the wells. 130 µL of media was added to the growth control wells. 128.5 µL of media+ 1.5 µL of DMSO were added to a second set of growth control wells. 150 µL of media was added to the sterility controls. Each sample was run in triplicate. The plate was covered by a lid with a peg per well and wrapped in parafilm and placed on a shaker in a humidified incubator (GeneVac) at 37±2°C for 24 hours set at 110 rpm. Rinse plate(s) of 0.9% saline (200 µL per well) were prepared in a sterile 96 well microtitre plate. Lid-associated pegs were rinsed in 0.9% saline for approximately 1-2 minutes. The peg lid was transferred to the recovery media (1.0% Tween 80 in CAMHB) then sonicated for 30 minutes to dislodge surviving biofilm. Following sonication, 100 µl from each well of the 96 well plate was placed into the first 12 wells of the first row of a 96 well microtiter plate. 180 µl of 0.9% sterile saline was placed in the remaining rows. A serial dilution (10^0-10^-7) was prepared by moving 20 µl down each of the 8 rows. 20µl from each well was removed and spot plated on a prepared TSA. In the remaining recovery plate, 100 µl of fresh growth media (1.0% Tween 80 in CAMHB) was placed in each well to replace the amount removed. The recovery plate was covered with a regular lid and incubated at 37±2°C for 24 hours and read visually to confirm antimicrobial activity of the test compounds. The following compounds have been tested regarding their efficiency (logR = log reduction) against Candida paratropicalis: […]

For `CCCCCCCCCC(=O)CC(=O)N(C)c1ccc(F)cc1` [Example 1], the log reduction at 100 µM came out at 0.62.
Take `CCCCCCC(=O)CC(=O)Nc1ccno1` [Example 2]: the log reduction at 10 µM came to 1.12 and the log reduction at 100 µM turned out to be 0.65.
`CCCCCCCCCC(=O)CC(=O)Nc1ccno1` [Example 3] registered a log reduction at 10 µM of 1.26 and a log reduction at 100 µM of 1.1.
As for `CCCCCCCCCC(=O)CC(=O)Nc1nc(C)co1` [Example 4], the log reduction at 100 µM is 1.71.
In the case of `CCCCCCCCCC(=O)CC(=O)N1CCN(C)CC1` [Example 5], the log reduction at 100 µM is 2.83.
Same read-out and setting: the same measure for `CCCCCCCCCC(=O)CC(=O)N1CCC(N(C)C)C1` (centres unmarked) [Example 6]: 3.87.
